The results in this text go back to ChEMBL document CHEMBL5291721, “A preclinical secondary pharmacology resource illuminates target-adverse drug reaction associations of marketed drugs” (Nat Commun, 2023).

Where only a bound is given, the exact number is not on record here.

Experiment [1] deals with T1, Alpha-1A adrenergic receptor (Homo sapiens, UniProt P35348).
T1 sequence (P35348 whole entry): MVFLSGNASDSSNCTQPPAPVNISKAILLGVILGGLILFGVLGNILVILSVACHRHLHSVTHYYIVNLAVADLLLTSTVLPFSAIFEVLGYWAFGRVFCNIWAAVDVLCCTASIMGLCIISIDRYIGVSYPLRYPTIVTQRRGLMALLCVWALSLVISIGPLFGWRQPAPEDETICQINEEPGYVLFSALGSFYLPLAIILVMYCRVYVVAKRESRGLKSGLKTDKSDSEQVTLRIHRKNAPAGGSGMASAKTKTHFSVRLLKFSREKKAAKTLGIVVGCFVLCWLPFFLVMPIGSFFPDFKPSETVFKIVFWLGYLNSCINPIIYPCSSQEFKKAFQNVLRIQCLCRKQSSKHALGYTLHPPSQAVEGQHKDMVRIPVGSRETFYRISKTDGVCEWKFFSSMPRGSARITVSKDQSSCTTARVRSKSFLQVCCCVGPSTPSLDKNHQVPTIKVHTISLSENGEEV
The format is functional, cell-based.

Experiment [2] concerns the target Vascular endothelial growth factor receptor 2 (Homo sapiens, UniProt P35968). The class given is functional.
Experiment [3] concerns the target Acetylcholinesterase (Homo sapiens, UniProt P22303). The class given is functional.
Experiment [4] deals with Sodium-dependent noradrenaline transporter (Homo sapiens, UniProt P23975).
For experiment [5], the target named is Sodium-dependent dopamine transporter (Homo sapiens, UniProt Q01959).
Experiment [6] addresses T2, Amine oxidase [flavin-containing] A (Homo sapiens, UniProt P21397).
T2 sequence (P21397 whole entry): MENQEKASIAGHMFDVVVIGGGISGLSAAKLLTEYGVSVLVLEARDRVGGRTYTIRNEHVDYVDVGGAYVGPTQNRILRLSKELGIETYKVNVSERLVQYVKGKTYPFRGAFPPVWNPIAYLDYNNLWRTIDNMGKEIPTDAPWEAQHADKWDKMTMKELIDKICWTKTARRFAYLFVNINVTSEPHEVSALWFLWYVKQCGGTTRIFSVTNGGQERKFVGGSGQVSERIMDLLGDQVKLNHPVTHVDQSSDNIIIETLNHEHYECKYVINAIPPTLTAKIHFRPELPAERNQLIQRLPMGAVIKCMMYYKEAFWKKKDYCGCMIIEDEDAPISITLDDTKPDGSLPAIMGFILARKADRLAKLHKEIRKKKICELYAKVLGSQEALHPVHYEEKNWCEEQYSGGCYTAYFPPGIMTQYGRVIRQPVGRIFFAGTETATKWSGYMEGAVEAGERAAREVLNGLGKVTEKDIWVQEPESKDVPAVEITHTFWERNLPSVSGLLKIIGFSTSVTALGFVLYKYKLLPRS
The format is functional.

For experiment [7], the target named is T3, 5-hydroxytryptamine receptor 1A (Homo sapiens, UniProt P08908).
T3 sequence (P08908 whole entry): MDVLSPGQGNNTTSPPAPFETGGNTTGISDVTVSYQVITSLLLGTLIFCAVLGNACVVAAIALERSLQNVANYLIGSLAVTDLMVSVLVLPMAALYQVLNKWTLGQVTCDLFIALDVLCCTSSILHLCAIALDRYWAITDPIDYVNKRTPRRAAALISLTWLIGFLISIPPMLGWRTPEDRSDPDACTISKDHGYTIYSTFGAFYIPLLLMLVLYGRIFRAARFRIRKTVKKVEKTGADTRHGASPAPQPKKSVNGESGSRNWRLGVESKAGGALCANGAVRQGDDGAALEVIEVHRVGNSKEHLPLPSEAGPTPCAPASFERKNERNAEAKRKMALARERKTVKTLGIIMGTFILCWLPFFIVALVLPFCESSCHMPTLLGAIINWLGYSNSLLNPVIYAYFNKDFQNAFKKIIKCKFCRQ

For experiment [8], the target named is Histamine H3 receptor (Homo sapiens, UniProt Q9Y5N1).
The target of experiment [9] is T1, Alpha-1A adrenergic receptor. The class given is functional, cell-based. This is another data set of the same source.
Experiment [10] has as its target Mu-type opioid receptor (Homo sapiens, UniProt P35372).
In experiment [11] the target is Prostaglandin G/H synthase 1 (Homo sapiens, UniProt P23219). The class given is functional.
In experiment [12] the target is T4, Estrogen receptor (Homo sapiens, UniProt P03372).
T4 sequence (P03372 whole entry): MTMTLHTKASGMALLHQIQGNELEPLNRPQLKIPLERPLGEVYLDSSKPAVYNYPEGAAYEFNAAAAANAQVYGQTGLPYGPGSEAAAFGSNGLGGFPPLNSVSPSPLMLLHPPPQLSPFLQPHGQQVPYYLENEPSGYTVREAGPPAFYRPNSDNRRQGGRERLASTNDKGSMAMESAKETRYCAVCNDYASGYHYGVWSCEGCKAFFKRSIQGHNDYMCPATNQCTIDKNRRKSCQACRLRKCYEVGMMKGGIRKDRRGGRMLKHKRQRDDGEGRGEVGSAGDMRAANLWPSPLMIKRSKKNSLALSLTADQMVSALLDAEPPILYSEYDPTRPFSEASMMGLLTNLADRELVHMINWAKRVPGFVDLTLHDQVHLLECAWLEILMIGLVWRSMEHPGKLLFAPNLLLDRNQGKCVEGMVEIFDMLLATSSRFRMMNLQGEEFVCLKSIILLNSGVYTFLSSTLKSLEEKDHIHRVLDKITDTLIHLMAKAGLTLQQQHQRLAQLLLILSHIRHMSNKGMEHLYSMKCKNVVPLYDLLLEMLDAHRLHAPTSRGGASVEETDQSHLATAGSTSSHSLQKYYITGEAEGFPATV

The target of experiment [13] is D(1A) dopamine receptor (Homo sapiens, UniProt P21728).
Experiment [14] deals with T5, Thromboxane A2 receptor (Homo sapiens, UniProt P21731).
T5 sequence (P21731 whole entry): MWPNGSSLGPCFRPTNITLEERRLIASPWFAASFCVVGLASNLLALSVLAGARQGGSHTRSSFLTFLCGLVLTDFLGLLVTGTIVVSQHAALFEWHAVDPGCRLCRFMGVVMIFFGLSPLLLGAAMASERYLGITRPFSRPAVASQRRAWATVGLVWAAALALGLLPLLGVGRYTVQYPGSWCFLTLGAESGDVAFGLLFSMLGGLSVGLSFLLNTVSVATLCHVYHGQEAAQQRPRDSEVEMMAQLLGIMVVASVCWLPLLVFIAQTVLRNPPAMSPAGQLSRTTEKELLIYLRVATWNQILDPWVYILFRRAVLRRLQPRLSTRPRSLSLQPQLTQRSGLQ
The format is functional, cell-based.
Note: assay procedure not described here.

Mu-type opioid receptor, sequence (P35372 whole entry): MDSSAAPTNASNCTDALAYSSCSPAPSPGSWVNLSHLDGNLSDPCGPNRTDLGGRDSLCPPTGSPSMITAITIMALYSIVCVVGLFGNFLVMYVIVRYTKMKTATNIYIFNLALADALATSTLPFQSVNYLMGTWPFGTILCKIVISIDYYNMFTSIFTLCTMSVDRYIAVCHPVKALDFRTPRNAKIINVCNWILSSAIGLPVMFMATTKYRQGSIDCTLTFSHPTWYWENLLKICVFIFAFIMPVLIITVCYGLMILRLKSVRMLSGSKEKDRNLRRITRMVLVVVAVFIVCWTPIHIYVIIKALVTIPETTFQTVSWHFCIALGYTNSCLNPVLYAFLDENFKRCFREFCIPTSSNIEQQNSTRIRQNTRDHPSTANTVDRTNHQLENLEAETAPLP
Histamine H3 receptor, sequence (Q9Y5N1 whole entry): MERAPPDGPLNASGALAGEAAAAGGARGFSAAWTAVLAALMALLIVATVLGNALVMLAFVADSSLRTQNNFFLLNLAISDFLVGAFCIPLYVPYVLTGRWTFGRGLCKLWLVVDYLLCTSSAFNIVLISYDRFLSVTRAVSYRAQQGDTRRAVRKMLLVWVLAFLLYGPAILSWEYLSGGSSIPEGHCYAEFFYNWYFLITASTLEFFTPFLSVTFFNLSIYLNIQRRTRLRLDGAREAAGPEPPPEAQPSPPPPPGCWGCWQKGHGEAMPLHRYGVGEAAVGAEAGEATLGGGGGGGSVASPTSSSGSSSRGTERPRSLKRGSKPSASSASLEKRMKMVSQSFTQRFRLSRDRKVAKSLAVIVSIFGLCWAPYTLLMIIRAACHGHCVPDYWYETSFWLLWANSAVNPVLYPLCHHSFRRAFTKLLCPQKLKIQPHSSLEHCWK
Vascular endothelial growth factor receptor 2, sequence (P35968 whole entry): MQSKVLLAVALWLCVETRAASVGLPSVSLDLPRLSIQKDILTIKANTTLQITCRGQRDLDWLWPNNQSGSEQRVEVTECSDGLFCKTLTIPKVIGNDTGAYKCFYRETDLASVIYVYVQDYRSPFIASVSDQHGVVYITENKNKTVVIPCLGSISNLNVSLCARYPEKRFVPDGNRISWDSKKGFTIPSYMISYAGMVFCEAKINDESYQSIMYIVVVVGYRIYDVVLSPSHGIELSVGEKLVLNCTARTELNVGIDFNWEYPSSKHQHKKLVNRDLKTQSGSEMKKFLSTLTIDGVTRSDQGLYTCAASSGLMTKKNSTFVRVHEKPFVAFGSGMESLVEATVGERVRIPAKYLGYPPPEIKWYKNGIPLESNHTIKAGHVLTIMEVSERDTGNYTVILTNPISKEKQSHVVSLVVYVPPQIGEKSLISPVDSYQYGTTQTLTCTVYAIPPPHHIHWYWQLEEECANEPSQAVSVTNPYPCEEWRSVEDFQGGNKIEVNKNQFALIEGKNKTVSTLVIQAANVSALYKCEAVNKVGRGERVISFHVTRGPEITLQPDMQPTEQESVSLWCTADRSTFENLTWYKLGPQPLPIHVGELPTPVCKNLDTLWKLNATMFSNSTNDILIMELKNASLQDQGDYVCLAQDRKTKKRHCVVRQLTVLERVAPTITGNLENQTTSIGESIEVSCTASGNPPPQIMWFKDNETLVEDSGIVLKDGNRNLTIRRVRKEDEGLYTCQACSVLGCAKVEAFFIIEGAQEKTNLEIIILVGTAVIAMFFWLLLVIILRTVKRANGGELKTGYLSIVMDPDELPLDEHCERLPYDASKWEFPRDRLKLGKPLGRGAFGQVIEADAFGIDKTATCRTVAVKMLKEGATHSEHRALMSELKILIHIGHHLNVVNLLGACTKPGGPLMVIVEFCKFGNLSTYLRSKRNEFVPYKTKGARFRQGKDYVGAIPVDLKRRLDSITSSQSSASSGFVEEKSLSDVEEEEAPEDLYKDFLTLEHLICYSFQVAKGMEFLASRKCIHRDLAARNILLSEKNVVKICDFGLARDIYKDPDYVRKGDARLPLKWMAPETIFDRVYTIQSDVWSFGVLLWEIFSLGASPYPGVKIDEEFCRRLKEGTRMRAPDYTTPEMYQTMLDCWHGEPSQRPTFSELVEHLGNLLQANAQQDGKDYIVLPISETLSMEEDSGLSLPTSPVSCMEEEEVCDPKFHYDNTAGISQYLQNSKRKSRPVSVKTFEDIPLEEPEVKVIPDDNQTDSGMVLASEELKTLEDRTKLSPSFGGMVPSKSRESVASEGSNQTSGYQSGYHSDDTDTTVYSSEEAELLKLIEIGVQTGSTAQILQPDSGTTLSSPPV
Sodium-dependent noradrenaline transporter, sequence (P23975 whole entry): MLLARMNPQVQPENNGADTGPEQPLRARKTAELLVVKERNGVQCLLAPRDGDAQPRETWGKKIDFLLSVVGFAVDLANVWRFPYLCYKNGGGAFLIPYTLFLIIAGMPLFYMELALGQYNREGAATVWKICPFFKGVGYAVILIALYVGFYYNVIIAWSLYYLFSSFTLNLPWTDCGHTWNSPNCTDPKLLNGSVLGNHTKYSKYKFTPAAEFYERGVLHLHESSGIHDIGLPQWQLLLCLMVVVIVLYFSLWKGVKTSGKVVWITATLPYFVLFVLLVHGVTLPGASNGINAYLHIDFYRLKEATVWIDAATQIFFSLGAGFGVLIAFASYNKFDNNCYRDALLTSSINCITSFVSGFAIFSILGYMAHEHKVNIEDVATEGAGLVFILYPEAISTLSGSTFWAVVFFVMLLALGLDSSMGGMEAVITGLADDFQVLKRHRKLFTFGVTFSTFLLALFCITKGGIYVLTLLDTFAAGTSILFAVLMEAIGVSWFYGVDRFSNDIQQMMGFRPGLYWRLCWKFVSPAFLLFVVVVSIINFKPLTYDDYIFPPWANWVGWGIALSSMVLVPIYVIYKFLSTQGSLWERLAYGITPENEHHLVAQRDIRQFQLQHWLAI
D(1A) dopamine receptor, sequence (P21728 whole entry): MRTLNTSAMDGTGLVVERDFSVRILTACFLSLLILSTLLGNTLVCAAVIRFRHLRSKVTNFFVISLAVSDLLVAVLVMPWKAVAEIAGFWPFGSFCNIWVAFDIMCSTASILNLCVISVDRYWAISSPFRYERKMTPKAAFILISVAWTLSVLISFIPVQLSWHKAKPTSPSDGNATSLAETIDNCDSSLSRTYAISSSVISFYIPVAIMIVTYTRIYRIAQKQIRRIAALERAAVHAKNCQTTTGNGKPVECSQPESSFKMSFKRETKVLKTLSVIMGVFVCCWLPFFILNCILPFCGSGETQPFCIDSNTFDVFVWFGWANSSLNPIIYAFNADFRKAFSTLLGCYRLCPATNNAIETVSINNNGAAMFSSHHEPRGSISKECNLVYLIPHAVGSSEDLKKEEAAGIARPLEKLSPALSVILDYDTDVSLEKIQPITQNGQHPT
Acetylcholinesterase, sequence (P22303 whole entry): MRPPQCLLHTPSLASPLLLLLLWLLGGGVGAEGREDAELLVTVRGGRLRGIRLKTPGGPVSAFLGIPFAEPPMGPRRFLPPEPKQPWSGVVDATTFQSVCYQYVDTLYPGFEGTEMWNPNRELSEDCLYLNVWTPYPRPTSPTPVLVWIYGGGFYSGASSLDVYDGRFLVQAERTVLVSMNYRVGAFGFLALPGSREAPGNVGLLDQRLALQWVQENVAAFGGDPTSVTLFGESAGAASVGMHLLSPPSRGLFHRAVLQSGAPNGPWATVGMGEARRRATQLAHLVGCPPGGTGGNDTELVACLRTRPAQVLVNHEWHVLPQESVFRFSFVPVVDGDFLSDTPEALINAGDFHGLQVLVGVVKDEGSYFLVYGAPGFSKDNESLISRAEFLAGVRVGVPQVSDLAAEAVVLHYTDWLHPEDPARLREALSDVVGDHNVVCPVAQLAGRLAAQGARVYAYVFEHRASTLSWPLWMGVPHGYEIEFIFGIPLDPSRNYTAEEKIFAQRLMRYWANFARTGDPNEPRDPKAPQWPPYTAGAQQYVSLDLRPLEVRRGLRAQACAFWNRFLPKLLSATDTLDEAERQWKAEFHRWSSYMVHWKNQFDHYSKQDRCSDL
Prostaglandin G/H synthase 1, sequence (P23219 whole entry): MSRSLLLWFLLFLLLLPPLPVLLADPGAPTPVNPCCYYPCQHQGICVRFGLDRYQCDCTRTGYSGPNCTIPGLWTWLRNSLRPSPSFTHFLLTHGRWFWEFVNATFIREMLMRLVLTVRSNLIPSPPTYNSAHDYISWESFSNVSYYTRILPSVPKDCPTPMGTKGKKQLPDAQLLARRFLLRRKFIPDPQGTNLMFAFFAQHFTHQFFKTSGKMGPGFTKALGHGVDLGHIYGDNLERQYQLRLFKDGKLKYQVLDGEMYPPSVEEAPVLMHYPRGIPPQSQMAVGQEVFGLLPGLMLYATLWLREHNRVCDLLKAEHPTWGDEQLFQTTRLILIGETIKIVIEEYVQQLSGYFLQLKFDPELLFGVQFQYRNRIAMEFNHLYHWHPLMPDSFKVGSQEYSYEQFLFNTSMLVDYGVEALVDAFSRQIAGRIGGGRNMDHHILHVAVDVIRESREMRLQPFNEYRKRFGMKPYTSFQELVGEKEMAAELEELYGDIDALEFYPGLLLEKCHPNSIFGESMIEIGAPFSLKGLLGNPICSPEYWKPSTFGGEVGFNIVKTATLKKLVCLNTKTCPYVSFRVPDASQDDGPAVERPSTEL

In the case of `CN1CCCC(CC2c3ccccc3Sc3ccccc32)C1` (stereo unspecified) [METHIXENE], the AC50 is 0.586 µM in experiment [1]; > 30 µM in experiment [2]; > 30 µM in [3]; 3.29 µM in experiment [4]; > 30 µM in [5]; > 30 µM in [6]. For the same compound, the AC50 is 1.9 µM in [7]; 20.3 µM in experiment [8]; > 30 µM in experiment [9]; 13.9 µM in experiment [10]; > 30 µM in experiment [11]; > 30 µM in [12]. Moreover, the AC50 in experiment [13] came out at 2.03 µM; in [14], 25 µM.

Take `O=C1Nc2ccccc2C1(c1ccc(O)cc1)c1ccc(O)cc1` [OXYPHENISATINE]: the AC50 in experiment [1], in [2], in experiment [3], in experiment [4], in experiment [5] and in experiment [6] was > 30 µM each time. Besides, the AC50 in experiment [7], in [8], in experiment [9], in [10], in [11] and in experiment [12] was > 30 µM in each case. In addition, the AC50 in [13] and in [14] was > 30 µM in each case.

Consider `COC(=O)N(C)c1c(N)nc(-c2nn(Cc3ccccc3F)c3ncccc23)nc1N` [RIOCIGUAT], for which the AC50 in experiment [1], in experiment [2], in [3], in experiment [4], in experiment [5] and in experiment [6] was > 30 µM throughout. Also, the AC50 in experiment [7], in experiment [8], in [9], in [10], in [11] and in experiment [12] was > 30 µM throughout. Further, the AC50 in [13] and in [14] was > 30 µM throughout.

As to `COc1ncnc(NS(=O)(=O)c2ccc(N)cc2)c1OC` [SULFADOXINE], the AC50 in [1], in experiment [2], in [3], in [4], in experiment [5] and in experiment [6] was > 30 µM throughout. The AC50 in experiment [7] was > 30 µM; in experiment [8], > 30 µM; in [9], > 30 µM; in [10], > 30 µM; in [11], > 30 µM; in [12] it was 22.7 µM. The AC50 in experiment [13] and in [14] was > 30 µM each time.

In the case of `CN1C(C(=O)Nc2ccccn2)=C(OC(=O)/C=C/c2ccccc2)c2ccccc2S1(=O)=O` [PIROXICAM CINNAMATE], the AC50 in experiment [1] is > 30 µM; in [2], > 30 µM; in experiment [3], > 30 µM; in [4], > 30 µM; in [5] it was > 30 µM; in experiment [6], > 10 µM. The AC50 in [7] was 13.4 µM; in [8], > 30 µM; in experiment [9], > 30 µM; in experiment [10], > 30 µM; in [11], 16.3 µM; in [12], > 30 µM. Moreover, the AC50 in [13] and in experiment [14] was > 30 µM in each case.

As for `CCOc1ccc(Cc2nccc3cc(OCC)c(OCC)cc23)cc1OCC` [ETHAVERINE], the AC50 in experiment [1] is 9.55 µM; in experiment [2], > 30 µM; in experiment [3] it was > 30 µM; in experiment [4], > 30 µM; in experiment [5], > 30 µM; in experiment [6], > 30 µM. The AC50 in [7], in experiment [8], in experiment [9], in [10], in experiment [11] and in experiment [12] was > 30 µM in each case. Besides, the AC50 in experiment [13] is 8.59 µM; in [14], > 30 µM.

Turning to `CN1CCc2c(c3ccccc3n2Cc2ccccc2)C1` [MEBHYDROLIN], the AC50 in [1] was 1.07 µM; in experiment [2], > 30 µM; in experiment [3], > 30 µM; in [4], 8.13 µM; in experiment [5], 0.334 µM; in experiment [6] it was > 30 µM. In addition, the AC50 in experiment [7] is 1.04 µM; in [8] it was > 30 µM; in [9] it was > 30 µM; in experiment [10] it was 18.7 µM; in [11], > 30 µM; in experiment [12] it was > 30 µM. In addition, the AC50 in experiment [13] was 1.98 µM; in [14], > 30 µM.

In the case of `Cc1ccc2c([nH]c(=O)c3c(=O)cc(C(=O)OCCC(C)C)oc32)c1C`, the AC50 was > 30 µM in experiment [1]; > 30 µM in experiment [2]; 6.76 µM in [3]; > 30 µM in experiment [4]; > 30 µM in [5]; > 30 µM in experiment [6]. The AC50 in [7], in [8], in [9], in experiment [10], in experiment [11] and in [12] was > 30 µM in each case. Moreover, the AC50 in [13] and in experiment [14] was > 30 µM throughout.

Turning to `Cc1cnc(C(=O)O)c[n+]1[O-]` [ACIPIMOX], the AC50 in experiment [1], in experiment [2], in [3], in [4], in [5] and in [6] was > 30 µM in each case. Moreover, the concentration at half-maximal activity (AC50) in [7], in experiment [8], in experiment [9], in experiment [10], in experiment [11] and in experiment [12] was > 30 µM in each case. Besides, the AC50 in experiment [13] and in experiment [14] was > 30 µM each time.

The AC50 is the midpoint of the concentration-response curve, whichever way the signal moves. Read a high AC50 as activity only at high concentration.
